Laboratory results: US20220313650A1, “METHODS FOR TREATING NEURODEVELOPMENTAL DISORDERS” (The Broad Institute, Inc., priority 2019, published 2022)
“Also recorded” adds a separate entry of the source.

Columns and labels:
WT TRN neurons = assay: Whole-cell patch-clamp rebound burst firing in acute brain slices, WT mice; assay type: cell-based
Description: (§1) For conducting slice electrophysiology analysis, whole-cell patch-clamp recordings were performed using horizontal slices for the rebound bursting assays and angled-coronal thalamocortical slices for the synaptic optogenetics experiments (Agmon et al., 1991). 21-35 day old male C57BL6 mice and Ptchd1 Y/− (knockout) mice were used. Animals were transcardially perfused under isoflurane anesthesia with an ice-cold cutting solution (194 mM Sucrose, 30 mM NaCl, 4.5 mM KCl, 1.2 mM NaH2PO4, 10 mM Glucose, 2 mM MgCl2, 0.2 mM CaCl2, and 26 mM NaHCO3). Mice were then decapitated and the brains were carefully dissected out. Both cerebellum and olfactory bulb were removed from the brain and were placed and glued onto the stage of a Leica Vibratome with the ventral surface down and the pial surface towards the blade. 250 micron thick slices containing the TRN were then collected and recovered in regular artificial cerebrospinal fluid (aCSF; 119 mM NaCl, 2.3 mM KCl, 1 mM NaH2PO4; 11 mM Glucose, 1.3 mM MgCl2, 2.5 mM CaCl2), 26 mM NaHCO3) heated to 32° C. for 10 minutes and then at room temperature for at least 1 hr. All buffers were continuously bubbled with 95% O2/5% C02. Slices were then transferred to a submersion recording chamber where they were perfused with aCSF at a rate of 2 ml/min at room temperature. Patch recording pipettes were pulled using a Flaming/Brown micropipette puller (Sutter Instruments) and Borosilicate glass (KG33, King Precision Glass). The DC resistances were ˜4-6 MΩ. Potassium methanesulfonate based internal solution (140 mM KMeSO3; 10 mM KCl; 10 mM HEPES; 0.1 mM EGTA; 4 mM Mg-ATP; 0.2 mM Na-GTP; 10 mM hosphocreatine) was used. Neurons were visualized using infrared differential interference contrast (IR-DIC) microscopy (Olympus, BX51W1) with an upright microscope digital camera.
The recordings were made with a microelectrode amplifier with bridge and voltage clamp modes of operation (Multiclamp 700B, Molecular Devices, San Jose, Calif., USA). Signals were low-pass filtered at 2 kHz and sampled at 10-20 kHz with a Digidata 1440A (Molecular Devices, San Jose, Calif., USA). Data were stored on a computer for subsequent off-line analysis. Cells with the series resistance (Rs, typically 8-12 MΩ) changed by >20% were excluded for data analysis. In addition, cells with Rs more than […] at any time during the recordings were discarded.

Ptchd1 KO TRN neurons = assay: Whole-cell patch-clamp rebound burst firing in acute brain slices, Ptchd1 KO mice; assay type: cell-based; details: LY379268 1 μM, holding potentials −85 mV to −50 mV
Description: as §1, with “Patch recording pipettes were pulled using a Flaming/Brown micropipette puller (Sutter Instruments) and Borosilicate glass (KG33, King Precision Glass). The DC resistances were ˜4-6 MΩ. Potassium methanesulfonate based internal solution (140 mM KMeSO3; 10 mM KCl; 10 mM HEPES; 0.1 mM EGTA; 4 mM Mg-ATP; 0.2 mM Na-GTP; 10 mM hosphocreatine) was used. Neurons were visualized using infrared differential interference contrast (IR-DIC) microscopy (Olympus, BX51W1) with an upright microscope digital camera.” left out

[1] = test system: low-threshold T-type Ca2+ channels; assay: T type current recording in TRN neurons; assay type: cell-based, mice; details: in the presence of LY379268
Description: For conducting slice electrophysiology analysis, whole-cell patch-clamp recordings were performed using horizontal slices for the rebound bursting assays and angled-coronal thalamocortical slices for the synaptic optogenetics experiments (Agmon et al., 1991). 21-35 day old male C57BL6 mice and Ptchd1 Y/− (knockout) mice were used. Animals were transcardially perfused under isoflurane anesthesia with an ice-cold cutting solution (194 mM Sucrose, 30 mM NaCl, 4.5 mM KCl, 1.2 mM NaH2PO4, 10 mM Glucose, 2 mM MgCl2, 0.2 mM CaCl2, and 26 mM NaHCO3). Mice were then decapitated and the brains were carefully dissected out. Both cerebellum and olfactory bulb were removed from the brain and were placed and glued onto the stage of a Leica Vibratome with the ventral surface down and the pial surface towards the blade. […]
The channel conductance of SK channels and low-threshold T-type Ca2+ channels at different holding membrane potentials ranging from −80 mV to −50 mV in the presence or absence of SK channel blockers was evaluated in order to further determine how the activation of mGluR2/3 in TRN neurons enhanced the rebound bursting.

TRN neurons [2] = assay: Spontaneous EPSC recordings from TRN neurons, WT mice; assay type: cell-based; details: LY379268 1 uM, with PTX
Description: as §1, with “Patch recording pipettes were pulled using a Flaming/Brown micropipette puller (Sutter Instruments) and Borosilicate glass (KG33, King Precision Glass). The DC resistances were ˜4-6 MΩ. Potassium methanesulfonate based internal solution (140 mM KMeSO3; 10 mM KCl; 10 mM HEPES; 0.1 mM EGTA; 4 mM Mg-ATP; 0.2 mM Na-GTP; 10 mM hosphocreatine) was used. Neurons were visualized using infrared differential interference contrast (IR-DIC) microscopy (Olympus, BX51W1) with an upright microscope digital camera.” left out

TRN neurons [3] = assay: Spontaneous EPSC recordings from TRN neurons, Ptchd1 KO mice; assay type: cell-based; details: LY379268, with PTX
Description: as §1, with “Patch recording pipettes were pulled using a Flaming/Brown micropipette puller (Sutter Instruments) and Borosilicate glass (KG33, King Precision Glass). The DC resistances were ˜4-6 MΩ. Potassium methanesulfonate based internal solution (140 mM KMeSO3; 10 mM KCl; 10 mM HEPES; 0.1 mM EGTA; 4 mM Mg-ATP; 0.2 mM Na-GTP; 10 mM hosphocreatine) was used. Neurons were visualized using infrared differential interference contrast (IR-DIC) microscopy (Olympus, BX51W1) with an upright microscope digital camera.” left out

N[C@@]1(C(=O)O)COC2C(C(=O)O)C21 (stereo in doubt) [LY379268, (1R,4R,5S,6R)-4-Amino-2-oxabicyclo[3.1.0] hexane-4,6-dicarboxylic acid]
rebound burst firing, occlusion experiment (WT TRN neurons; LY379268 applied in the presence of (after pretreatment with) ML337): no change in repetitive bursting; also recorded: occluded in the presence of ML337 | number of rebound burst firings (WT TRN neurons; WT TRN neurons, LY379268 1 μM, after somatic hyperpolarization pulse, holding potentials −80 mV to −50 mV): significant increase in the repetitive rebound bursting; also recorded: increase in the number of rebound burst firings; also recorded: Significant changes were detected in a membrane holding potentials between −70 mV and −60 mV; also recorded: Significant changes were detected at membrane holding potentials as indicated | number of rebound burst firings (Ptchd1 KO TRN neurons): significantly increased the number of rebound repetitive bursting; also recorded: significantly increased the number of rebound burst firings; also recorded: Significant changes were found between −72 mV and −67 mV holding potential | current mediated by T (max inward currents, T-type Ca2+ channel conductance) [1]: significantly increased | frequency of sEPSCs (TRN neurons [2]): significantly reduced the frequency | frequency of sEPSCs (TRN neurons [3]): significantly reduced the frequency
